We go through seven compounds from ChEMBL document CHEMBL1201862, “PubChem BioAssay data set” (2004).

Test systems include SNB-75; Malme-3M; NCI-H460; SN12C; COLO 205; UACC-62; LOX IMVI; OVCAR-3; NCI-H23; MOLT-4; IGROV-1; HOP-62; CAKI-1; OVCAR-8; CCRF-CEM; SK-MEL-28; SK-MEL-2; SNB-19; SF-539; SF-295.
What all share (experiment): growth of human tumour cells (NCI), 48 h

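These data come from cells grown in 96-well plates and exposed to compound for 48 hours at five concentrations. GI50 = concentration required for 50% inhibition of growth.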 Active and inactive are the calls of the source. No stated cut-off is given here; in the data, active = GI50 up to about 1.1 µM and inactive = higher. A value given as a limit tells only on which side of the number the result lay.

On to `COC(=O)C(=O)C(C(=O)Nc1cccc(C)c1C)C1Sc2ccccc2NC1=O` (stereo not given), for which the GI50 was 9.84 µM (inactive) with SNB-75; 6.37 µM (inactive) in the assay on Malme-3M; 13.4 µM (inactive) with NCI-H460; > 25 µM (inactive) with SN12C; 8.97 µM (inactive) in the assay on COLO 205; 8.09 µM (inactive) in the assay on UACC-62. Besides, the GI50 in the assay on LOX IMVI was 13.9 µM (inactive); in the assay with OVCAR-3, 20 µM (inactive); in the assay on NCI-H23, > 25 µM (inactive); with MOLT-4 it was > 25 µM (inactive); in the assay on IGROV-1 it was 16.8 µM (inactive); with HOP-62, 19.6 µM (inactive). Further, the GI50 was > 25 µM (inactive) with CAKI-1; 19.5 µM (inactive) with OVCAR-8; > 25 µM (inactive) in the assay on CCRF-CEM; 14.6 µM (inactive) with SK-MEL-28; 5.75 µM (inactive) in the assay on SK-MEL-2; 21.9 µM (inactive) in the assay on SNB-19. Moreover, the GI50 is 12 µM (inactive) in the assay with SF-539 and 12.1 µM (inactive) with SF-295.

As for `Cc1cc(C)c(C2=NO[C@@H]3[C@H]2C(=O)C=C2N(Cc4ccccc4)CCO[C@@]23O)c(C)c1`, the GI50 in the assay with SNB-75 is > 94.2 µM (inactive); with Malme-3M it was > 100 µM (inactive); with NCI-H460 it was > 100 µM (inactive); in the assay with SN12C, > 100 µM (inactive); with COLO 205, > 100 µM (inactive); in the assay on UACC-62, > 100 µM (inactive). Also, the GI50 with LOX IMVI, in the assay with OVCAR-3, in the assay with NCI-H23, with MOLT-4, in the assay with IGROV-1 and in the assay on HOP-62 was > 100 µM (inactive) each time. The GI50 in the assay on CAKI-1 was 1 µM (active); in the assay with OVCAR-8, > 100 µM (inactive); in the assay on CCRF-CEM, > 100 µM (inactive); in the assay on SK-MEL-28, > 100 µM (inactive); in the assay with SK-MEL-2 it was > 100 µM (inactive); in the assay on SNB-19 it was > 100 µM (inactive). For the same compound, the GI50 in the assay on SF-539 and with SF-295 was > 100 µM (inactive) throughout.

For the compound `CN(C)CCNC(=O)c1ccc(Cl)c2ccc(-c3ccccc3)nc12`, the GI50 was 3.57 µM (inactive) in the assay on SNB-75; 3.52 µM (inactive) in the assay with Malme-3M; 2.07 µM (inactive) in the assay on NCI-H460; 3.85 µM (inactive) in the assay with SN12C; 1.61 µM (inactive) with COLO 205; 2.69 µM (inactive) with UACC-62. The GI50 is 2.34 µM (inactive) with LOX IMVI; 5.4 µM (inactive) in the assay on OVCAR-3; 5.38 µM (inactive) with NCI-H23; 1.82 µM (inactive) with MOLT-4; 3.48 µM (inactive) in the assay on IGROV-1; 1.52 µM (inactive) with HOP-62. In addition, the GI50 in the assay on CAKI-1 was 2.69 µM (inactive); in the assay on OVCAR-8, 2.57 µM (inactive); with CCRF-CEM, 2.16 µM (inactive); in the assay on SK-MEL-28 it was 4.27 µM (inactive); with SK-MEL-2, 7.67 µM (inactive); with SNB-19, 3.06 µM (inactive). The GI50 is 3.66 µM (inactive) with SF-539 and 2.96 µM (inactive) in the assay on SF-295.

On to `CC(C)C(=O)N1C(=O)O[C@@H](c2ccccc2)[C@H]1C`, for which the GI50 in the assay on SNB-75, with Malme-3M, in the assay with NCI-H460, in the assay with SN12C, with COLO 205 and in the assay with UACC-62 was > 100 µM (inactive) throughout. The GI50 in the assay on LOX IMVI, with OVCAR-3, with NCI-H23, in the assay with MOLT-4, in the assay on IGROV-1 and in the assay on HOP-62 was > 100 µM (inactive) each time. The GI50 is > 37 µM (inactive) in the assay on CAKI-1; > 100 µM (inactive) in the assay on OVCAR-8; > 100 µM (inactive) in the assay with CCRF-CEM; > 100 µM (inactive) in the assay on SK-MEL-28; > 100 µM (inactive) in the assay with SK-MEL-2; > 23.6 µM (inactive) in the assay with SNB-19. Moreover, the GI50 with SF-539 and in the assay on SF-295 was > 100 µM (inactive) each time.

With `O=c1[nH]cnc2sc(=S)c3c(c12)CCC3`, the GI50 in the assay with SNB-75 was > 100 µM (inactive); with Malme-3M it was 37.2 µM (inactive); in the assay on NCI-H460, 44.1 µM (inactive); with SN12C, > 100 µM (inactive); in the assay with COLO 205, 14.4 µM (inactive); with UACC-62 it was 40.9 µM (inactive). Moreover, the GI50 in the assay with LOX IMVI was 24.7 µM (inactive); in the assay on OVCAR-3, 18.4 µM (inactive); with NCI-H23, 23.5 µM (inactive); with MOLT-4, 11.7 µM (inactive); with IGROV-1 it was 15.8 µM (inactive); in the assay with HOP-62, 52.2 µM (inactive). Besides, the GI50 was 19.3 µM (inactive) in the assay with CAKI-1; 38.4 µM (inactive) in the assay with OVCAR-8; 21 µM (inactive) in the assay with CCRF-CEM; 40.1 µM (inactive) with SK-MEL-28; > 100 µM (inactive) in the assay on SK-MEL-2; 48.5 µM (inactive) in the assay with SNB-19. Further, the GI50 with SF-539 and with SF-295 was > 100 µM (inactive) in each case.

Consider `COCC1N=C(c2cc(OC)c(OC)c(OC)c2-c2cc3c(cc2[C@@H](C)O)OCO3)O[C@H]1c1ccccc1` (stereo not given in full), for which the GI50 is 25.9 µM (inactive) in the assay on SNB-75; > 80.5 µM (inactive) with Malme-3M; > 71.8 µM (inactive) in the assay with NCI-H460; 52.1 µM (inactive) in the assay with SN12C; > 100 µM (inactive) in the assay with COLO 205; 33.6 µM (inactive) with UACC-62. Further, the GI50 is > 100 µM (inactive) in the assay with LOX IMVI; 50 µM (inactive) with OVCAR-3; 51.6 µM (inactive) with NCI-H23; > 100 µM (inactive) in the assay with MOLT-4; > 68.9 µM (inactive) in the assay with IGROV-1; 86.3 µM (inactive) in the assay on HOP-62. Moreover, the GI50 was 99.8 µM (inactive) in the assay with CAKI-1; > 74.5 µM (inactive) with OVCAR-8; > 100 µM (inactive) in the assay with CCRF-CEM; > 68.4 µM (inactive) in the assay on SK-MEL-28; > 53.3 µM (inactive) in the assay on SK-MEL-2; 73.1 µM (inactive) in the assay on SNB-19. Also, the GI50 with SF-539 was 77.4 µM (inactive); with SF-295, 57.7 µM (inactive).

In the case of `COc1cc(C2c3cc4c(cc3[C@@H](Nc3cccc([N+](=O)[O-])c3)C3COC(=O)[C@H]23)OCO4)cc(OC)c1O` (stereo not given in full), the GI50 in the assay on SNB-75 is 4.1 µM (inactive); in the assay with Malme-3M it was 2.62 µM (inactive); with NCI-H460 it was 0.02 µM (active); with SN12C it was 2.75 µM (inactive); with COLO 205, 1.35 µM (inactive); in the assay with UACC-62, 2.52 µM (inactive). Further, the GI50 in the assay with LOX IMVI is 1.63 µM (inactive); in the assay with OVCAR-3, 5.69 µM (inactive); in the assay with NCI-H23 it was 1.55 µM (inactive); with MOLT-4, 0.29 µM (active); with IGROV-1 it was 6.65 µM (inactive); in the assay with HOP-62 it was 0.796 µM (active). Moreover, the GI50 in the assay with CAKI-1 is 1.03 µM (active); with OVCAR-8 it was 2.51 µM (inactive); in the assay on CCRF-CEM it was 0.4 µM (active); in the assay with SK-MEL-28 it was 5.36 µM (inactive); in the assay on SK-MEL-2, 5.4 µM (inactive); in the assay with SNB-19, 2.5 µM (inactive). Also, the GI50 is 1.43 µM (inactive) in the assay on SF-539 and 1.36 µM (inactive) in the assay on SF-295.
